Data: DBAASP
Converted amounts (≈) assume the structure as drawn.

Key:
Assay in all cases: ≥ marks a high value that may be exact or a test limit, other limits are often not marked, values filed in µg/mL are converted to µM
Escherichia coli MG1655 = tested on: Escherichia coli MG1655
[1] = tested on: Micrococcus luteus ATCC 4698
[2] = tested on: Pseudomonas aeruginosa PAO1
Escherichia coli BL21 = tested on: Escherichia coli BL21
[3] = tested on: Streptococcus pyogenes M1T1 5448
Micrococcus luteus = tested on: Micrococcus luteus
Pseudomonas aeruginosa = tested on: Pseudomonas aeruginosa
Klebsiella pneumoniae = tested on: Klebsiella pneumoniae
[4] = tested on: Staphylococcus epidermidis
Bacillus subtilis = tested on: Bacillus subtilis
[5] = tested on: Staphylococcus aureus ATCC 6538
[6] = tested on: Escherichia coli DH5alpha
Escherichia coli = tested on: Escherichia coli
[7] = tested on: Staphylococcus epidermidis ATCC 12228
Shigella dysenteriae = tested on: Shigella dysenteriae
Staphylococcus aureus = tested on: Staphylococcus aureus
Salmonella typhimurium = tested on: Salmonella typhimurium
Proteus mirabilis = tested on: Proteus mirabilis
Saccharomyces cerevisiae = tested on: Saccharomyces cerevisiae
[8] = tested on: Staphylococcus aureus ATCC 25923
[9] = tested on: Escherichia coli ATCC 25922
[10] = tested on: Pseudomonas aeruginosa ATCC 15692
[11] = tested on: Escherichia coli NCTC 10418

CC[C@H](C)[C@H](NC(=O)[C@H](CCCCN)NC(=O)CNC(=O)[C@H](CC(C)C)NC(=O)[C@H](Cc1ccccc1)NC(=O)[C@H](CCC(N)=O)NC(=O)[C@H](Cc1ccccc1)NC(=O)[C@@H](N)C(C)C)C(=O)N[C@H](C(=O)N[C@@H](Cc1cnc[nH]1)C(=O)N[C@@H](Cc1cnc[nH]1)C(=O)N[C@H](C(=O)NCC(=O)N[C@@H](CC(N)=O)C(=O)N[C@@H](Cc1ccccc1)C(=O)N[C@H](C(=O)N[C@@H](C)C(=O)NCC(=O)N[C@@H](Cc1ccccc1)C(=O)N[C@@H](CO)C(=O)N[C@@H](Cc1cnc[nH]1)C(=O)N[C@H](C(=O)N[C@@H](Cc1ccccc1)C(N)=O)C(C)C)C(C)C)C(C)C)[C@@H](C)CC [VFQFLGKIIHHVGNFVAGFSHVF] was tested, and the MIC (Escherichia coli MG1655) was ≥ 128 µM.

With NCCCC[C@@H]1NC(=O)[C@H](CCCN=C(N)N)NC(=O)[C@H](CCCCN)NC(=O)[C@H](Cc2c[nH]c3ccccc23)NC(=O)[C@H](CCCCN)NC(=O)[C@H](CCCCN)NC(=O)[C@@H](N)CSSC[C@@H](C(=O)O)NC(=O)[C@H](CCCN=C(N)N)NC1=O [CKKWKRKRC] the MIC [1] was 0.6 µM (≈ 0.74 µg/mL).

Work on CC[C@H](C)[C@H](NC(=O)[C@H](CCCCN)NC(=O)CNC(=O)[C@H](Cc1ccccc1)NC(=O)[C@H](CCCCN)NC(=O)[C@H](CCCN=C(N)N)NC(=O)[C@H](CC(C)C)NC(=O)[C@H](Cc1ccc(O)cc1)NC(=O)[C@H](CCC(=O)O)NC(=O)[C@H](CC(C)C)NC(=O)[C@H](CC(C)C)NC(=O)[C@H](CCC(=O)O)NC(=O)[C@H](CCCCN)NC(=O)[C@@H](NC(=O)[C@H](CC(C)C)NC(=O)[C@H](CCCN=C(N)N)NC(=O)[C@H](CC(N)=O)NC(=O)[C@H](C)NC(=O)[C@H](CCCCN)NC(=O)[C@H](C)N)[C@@H](C)O)C(=O)N[C@@H](C)C(=O)N[C@@H](CCCN=C(N)N)C(=O)N[C@@H](CCCCN)C(=O)N[C@@H](C)C(=O)N[C@@H](Cc1c[nH]c2ccccc12)C(=O)O [AKANRLTKELLEYLRKFGKIARKAW] yielded an MIC [2] of 16 µM (≈ 48.1 µg/mL), an MIC (Escherichia coli BL21) of 2 µM (≈ 6.01 µg/mL) and an MIC [3] of 4 µM (≈ 12 µg/mL).

CC[C@H](C)[C@H](NC(=O)[C@H](Cc1ccc(O)cc1)NC(=O)[C@H](CCCCN)NC(=O)[C@H](CCCCN)NC(=O)[C@H](CC(C)C)NC(=O)[C@H](CCC(=O)O)NC(=O)[C@H](CCCCN)NC(=O)[C@H](Cc1c[nH]c2ccccc12)NC(=O)[C@@H](NC(=O)[C@H](CCCN=C(N)N)NC(=O)[C@H](CCC(=O)O)NC(=O)[C@H](CO)NC(=O)CNC(=O)[C@H](C)N)[C@@H](C)CC)C(=O)N[C@@H](CCCCN)C(=O)N[C@@H](CCCCN)C(=O)NCC(=O)N[C@@H](CCCCN)C(=O)N[C@@H](CCCCN)C(=O)N[C@H](C(=O)N[C@H](C(=O)N[C@@H](CCCN=C(N)N)C(=O)N[C@@H](C)C(=O)N[C@@H](C)C(=O)N[C@@H](Cc1c[nH]c2ccccc12)C(=O)O)[C@@H](C)CC)C(C)C [AGSERIWKELKKYIKKGKKVIRAAW] showed an MIC [2] of 8 µM (≈ 23.9 µg/mL), an MIC (Escherichia coli BL21) of 2 µM (≈ 5.98 µg/mL) and an MIC [3] of 16 µM (≈ 47.8 µg/mL).

In the case of CC(C)C[C@H](NC(=O)[C@@H](NC(=O)[C@H](CCCCN)NC(=O)[C@H](CO)NC(=O)[C@H](C)NC(=O)[C@@H](NC(=O)[C@H](CCCCN)NC(=O)[C@H](Cc1ccccc1)NC(=O)[C@H](CC(C)C)NC(=O)[C@H](C)NC(=O)CNC(=O)[C@H](CC(C)C)NC(=O)[C@@H](N)Cc1ccccc1)C(C)C)C(C)C)C(=O)O [FLGALFKVASKVL], the MIC (Micrococcus luteus) was 4.52 µM (≈ 6.3 µg/mL), the MIC [1] was ≥ 35.9 µM and the MIC (Pseudomonas aeruginosa) was 71.8 µM (≈ 100 µg/mL). The MIC (Klebsiella pneumoniae) was 18 µM (≈ 25 µg/mL), the MIC [4] was 2.23 µM (≈ 3.1 µg/mL) and the MIC (Bacillus subtilis) was 8.98 µM (≈ 12.5 µg/mL). The MIC [5] was 71.8 µM (≈ 100 µg/mL), the MIC [6] was ≥ 194 µM and the MIC (Escherichia coli) was 18 µM (≈ 25 µg/mL). For the same compound, the MIC [7] was 180 µM (≈ 250 µg/mL), the MIC (Shigella dysenteriae) was 18 µM (≈ 25 µg/mL) and the MIC (Staphylococcus aureus) was 2.23 µM (≈ 3.1 µg/mL). The MIC (Salmonella typhimurium) was ≥ 71.8 µM and the MIC (Proteus mirabilis) was ≥ 144 µM.

In the case of CC[C@H](C)[C@H](NC(=O)[C@H](CO)NC(=O)[C@H](CO)NC(=O)[C@H](C)NC(=O)[C@H](Cc1c[nH]c2ccccc12)NC(=O)CN)C(=O)NCC(=O)N[C@@H](CO)C(=O)N[C@H](C(=O)N[C@@H](CC(C)C)C(=O)NCC(=O)N[C@@H](CCCCN)C(=O)N[C@@H](Cc1ccccc1)C(=O)N[C@@H](C)C(=O)N[C@@H](CCCCN)C(=O)NCC(=O)NCC(=O)N[C@@H](C)C(=O)N[C@@H](CCC(N)=O)C(=O)N[C@@H](C)C(=O)N[C@@H](Cc1ccccc1)C(=O)N[C@@H](CC(C)C)C(=O)N[C@@H](CCC(N)=O)C(=O)N1CCC[C@H]1C(=O)N[C@@H](CCCCN)C(=O)O)[C@@H](C)CC [GWASSIGSILGKFAKGGAQAFLQPK], the MIC (Saccharomyces cerevisiae) was ≥ 64 µM, the MIC (Micrococcus luteus) was 0.5 µM (≈ 1.26 µg/mL) and the MIC [8] was > 256 µM. For the same compound, the MIC [9] was 32 µM (≈ 80.6 µg/mL) and the MIC [10] was ≥ 128 µM.

CC[C@H](C)[C@H](NC(=O)[C@H](CC(N)=O)NC(=O)[C@@H](NC(=O)[C@H](C)N)C(C)C)C(=O)N1CCC[C@H]1C(=O)N[C@@H](Cc1ccccc1)C(=O)N[C@@H](CCCCN)C(=O)N[C@H](C(=O)N[C@@H](Cc1cnc[nH]1)C(=O)N[C@@H](CC(C)C)C(=O)N[C@@H](CCCN=C(N)N)C(=O)N[C@H]1CSSC[C@@H](C(=O)O)NC(=O)[C@H](Cc2ccccc2)NC(=O)[C@H](C)NC(=O)[C@H](C)NC(=O)[C@H](CCCCN)NC1=O)C(C)C [AVNIPFKVHLRCKAAFC] gave an MIC [11] of 20 µM (≈ 38.3 µg/mL).

With CC[C@H](C)[C@H](NC(=O)[C@H](CCCCN)NC(=O)[C@H](CCCCN)NC(=O)[C@H](CCCCN)NC(=O)[C@H](CC(C)C)NC(=O)[C@H](Cc1ccccc1)NC(=O)[C@H](CCC(N)=O)NC(=O)[C@H](CCCN=C(N)N)NC(=O)[C@@H](NC(=O)[C@@H](NC(=O)[C@H](CCC(=O)O)NC(=O)[C@H](CCCCN)NC(=O)CNC(=O)[C@H](C)N)[C@@H](C)O)[C@@H](C)CC)C(=O)N[C@@H](CCC(N)=O)C(=O)N[C@@H](CCC(=O)O)C(=O)N[C@@H](Cc1c[nH]c2ccccc12)C(=O)N[C@@H](CCCCN)C(=O)N[C@@H](CCCCN)C(=O)N[C@@H](CCCN=C(N)N)C(=O)N[C@@H](C)C(=O)N[C@H](C(=O)N[C@H](C(=O)N[C@@H](C)C(=O)N[C@@H](Cc1c[nH]c2ccccc12)C(=O)O)[C@@H](C)CC)[C@@H](C)O [AGKETIRQFLKKKIQEWKKRATIAW] the MIC [2] was 16 µM (≈ 48.9 µg/mL), the MIC (Escherichia coli BL21) was 0.5 µM (≈ 1.53 µg/mL) and the MIC [3] was 0.5 µM (≈ 1.53 µg/mL).

In the case of CC[C@H](C)[C@H](NC(=O)[C@H](Cc1ccccc1)NC(=O)[C@H](C)NC(=O)[C@H](CCCCN)NC(=O)[C@H](CCCCN)NC(=O)CNC(=O)[C@H](CCCN=C(N)N)NC(=O)[C@H](CCCCN)NC(=O)[C@H](CCCN=C(N)N)NC(=O)[C@H](CC(C)C)NC(=O)[C@H](CCC(=O)O)NC(=O)[C@H](CCC(=O)O)NC(=O)[C@H](CCCCN)NC(=O)[C@H](CC(C)C)NC(=O)[C@H](Cc1ccc(O)cc1)NC(=O)[C@H](CC(C)C)NC(=O)[C@@H](NC(=O)[C@H](CC(C)C)NC(=O)[C@H](C)NC(=O)[C@H](CCC(N)=O)NC(=O)[C@H](CCCN=C(N)N)NC(=O)CNC(=O)[C@H](C)N)[C@@H](C)O)C(=O)N[C@@H](Cc1c[nH]c2ccccc12)C(=O)N[C@@H](Cc1c[nH]c2ccccc12)C(=O)O [AGRQALTLYLKEELRKRGKKAFIWW], the MIC [2] was > 128 µM, the MIC (Escherichia coli BL21) was 16 µM (≈ 49 µg/mL) and the MIC [3] was 4 µM (≈ 12.3 µg/mL).

Work on CC[C@H](C)[C@H](NC(=O)[C@H](CCCCN)NC(=O)CNC(=O)[C@H](Cc1ccccc1)NC(=O)[C@H](CCCCN)NC(=O)[C@H](CCCN=C(N)N)NC(=O)[C@H](CC(C)C)NC(=O)[C@H](Cc1ccc(O)cc1)NC(=O)[C@H](CCC(=O)O)NC(=O)[C@H](CC(C)C)NC(=O)[C@H](CC(C)C)NC(=O)[C@H](CCC(=O)O)NC(=O)[C@H](CCCCN)NC(=O)[C@@H](NC(=O)[C@H](CC(C)C)NC(=O)[C@H](CCCN=C(N)N)NC(=O)[C@H](CCC(N)=O)NC(=O)[C@H](C)NC(=O)CNC(=O)[C@H](C)N)[C@@H](C)O)C(=O)N[C@@H](C)C(=O)N[C@@H](CCCN=C(N)N)C(=O)N[C@@H](CCCCN)C(=O)N[C@@H](C)C(=O)N[C@@H](Cc1c[nH]c2ccccc12)C(=O)O [AGAQRLTKELLEYLRKFGKIARKAW] yielded an MIC [2] of 64 µM (≈ 189 µg/mL), an MIC (Escherichia coli BL21) of 4 µM (≈ 11.8 µg/mL) and an MIC [3] of 0.5 µM (≈ 1.47 µg/mL).
